In PubChem BioAssay (NCI):
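These data come from cells grown in 96-well plates and exposed to compound for 48 hours at five concentrations. At the TGI there is no net growth.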

Columns and labels:
Experiment in all cases: DTP human tumour cell line panel, 48 h
[1] = system: CAKI-1 renal
[2] = system: SK-MEL-28 melanoma
[3] = system: EKVX NSCLC
[4] = system: SR leukemia
[5] = system: M19-MEL melanoma
[6] = system: A549 NSCLC
[7] = system: OVCAR-4 ovarian
[8] = system: MALME-3M melanoma
[9] = system: OVCAR-8 ovarian
[10] = system: TK-10 renal
[11] = system: SK-MEL-5 melanoma
[12] = system: SN12C renal
[13] = system: SK-OV-3 ovarian
[14] = system: SK-MEL-2 melanoma
[15] = system: SW-620 colon
[16] = system: HOP-92 NSCLC
[17] = system: HOP-62 NSCLC
[18] = system: CCRF-CEM leukemia
[19] = system: UACC-257 melanoma
[20] = system: SNB-19 CNS
[21] = system: UACC-62 melanoma
[22] = system: A498 renal
[23] = system: DMS 114 small cell lung
[24] = system: ACHN renal
[25] = system: HT29 colon
[26] = system: IGROV1 ovarian
[27] = system: 786-0 renal
[28] = system: UO-31 renal
[29] = system: NCI-H460 lung
[30] = system: HCT-116 colon
[31] = system: SF-268 CNS
[32] = system: DMS 273 small cell lung
[33] = system: K-562 leukemia
[34] = system: DLD-1 colon
[35] = system: SNB-75 CNS
[36] = system: SF-295 CNS
[37] = system: HCC-2998 colon
[38] = system: COLO 205 colon
[39] = system: HOP-18 NSCLC
[40] = system: KM12 colon
[41] = system: XF 498 CNS
[42] = system: OVCAR-3 ovarian
[43] = system: HL-60(TB) leukemia
[44] = system: HCT-15 colon
[45] = system: NCI-H23 lung
[46] = system: LOX IMVI melanoma
[47] = system: SF-539 CNS
[48] = system: NCI-H522 lung
[49] = system: LXFL 529 NSCLC
[50] = system: KM20L2 colon
[51] = system: M14 melanoma
[52] = system: OVCAR-5 ovarian
[53] = system: U251 CNS
[54] = system: MOLT-4 leukemia
[55] = system: RPMI-8226 leukemia
[56] = system: RXF 393 renal
[57] = system: NCI-H226 lung

## COc1cc(Nc2cnc3cc(N)ccc3n2)cc(OC)c1OC
[1]
  TGI: > 100 µM
[2]
  TGI: > 100 µM
[3]
  TGI: > 100 µM
[4]
  TGI: > 100 µM
[5]
  TGI: > 100 µM
[6]
  TGI: > 100 µM
[7]
  TGI: > 100 µM
[8]
  TGI: > 100 µM
[9]
  TGI: > 100 µM
[10]
  TGI: > 100 µM
[11]
  TGI: > 100 µM
[12]
  TGI: > 100 µM
[13]
  TGI: > 100 µM
[14]
  TGI: > 100 µM
[15]
  TGI: > 100 µM
[16]
  TGI: > 100 µM
[17]
  TGI: > 100 µM
[18]
  TGI: > 100 µM
[19]
  TGI: > 100 µM
[20]
  TGI: > 100 µM
[21]
  TGI: > 100 µM
[22]
  TGI: > 100 µM
[23]
  TGI: > 100 µM
[24]
  TGI: > 100 µM
[25]
  TGI: > 100 µM
[26]
  TGI: > 100 µM
[27]
  TGI: > 100 µM
[28]
  TGI: > 100 µM
[29]
  TGI: > 100 µM
[30]
  TGI: > 100 µM
[31]
  TGI: > 100 µM
[32]
  TGI: 28.1 µM
[33]
  TGI: > 100 µM
[34]
  TGI: > 100 µM
[35]
  TGI: > 100 µM
[36]
  TGI: > 100 µM
[37]
  TGI: > 100 µM
[38]
  TGI: > 100 µM
[39]
  TGI: > 100 µM
[40]
  TGI: > 100 µM
[41]
  TGI: > 100 µM
[42]
  TGI: > 100 µM
[43]
  TGI: > 100 µM
[44]
  TGI: > 100 µM
[45]
  TGI: > 100 µM
[46]
  TGI: > 100 µM
[47]
  TGI: > 100 µM
[48]
  TGI: > 100 µM
[49]
  TGI: > 100 µM
[50]
  TGI: > 100 µM
[51]
  TGI: > 100 µM
[52]
  TGI: > 100 µM
[53]
  TGI: > 100 µM
[54]
  TGI: > 100 µM

## CCOC(=O)COc1ccc(OCC(=O)OCC)c2c1C(=O)CCCC2=O
[2]
  TGI: > 100 µM
[3]
  TGI: > 100 µM
[4]
  TGI: > 100 µM
[5]
  TGI: > 100 µM
[6]
  TGI: > 100 µM
[55]
  TGI: > 100 µM
[8]
  TGI: > 100 µM
[9]
  TGI: > 100 µM
[10]
  TGI: > 100 µM
[11]
  TGI: 0.846 µM
[12]
  TGI: > 100 µM
[13]
  TGI: > 100 µM
[14]
  TGI: > 100 µM
[15]
  TGI: > 100 µM
[16]
  TGI: > 100 µM
[17]
  TGI: > 100 µM
[18]
  TGI: > 100 µM
[19]
  TGI: > 100 µM
[20]
  TGI: > 100 µM
[21]
  TGI: > 100 µM
[23]
  TGI: > 100 µM
[24]
  TGI: > 100 µM
[25]
  TGI: > 100 µM
[26]
  TGI: > 100 µM
[27]
  TGI: > 100 µM
[28]
  TGI: > 100 µM
[29]
  TGI: > 100 µM
[30]
  TGI: > 100 µM
[31]
  TGI: > 100 µM
[32]
  TGI: > 100 µM
[33]
  TGI: > 100 µM
[34]
  TGI: > 100 µM
[56]
  TGI: > 100 µM
[35]
  TGI: > 100 µM
[36]
  TGI: > 100 µM
[37]
  TGI: > 100 µM
[38]
  TGI: > 100 µM
[39]
  TGI: > 100 µM
[40]
  TGI: > 100 µM
[41]
  TGI: > 100 µM
[42]
  TGI: > 100 µM
[43]
  TGI: > 100 µM
[44]
  TGI: > 100 µM
[57]
  TGI: > 100 µM
[45]
  TGI: > 100 µM
[46]
  TGI: > 100 µM
[47]
  TGI: > 100 µM
[48]
  TGI: > 100 µM
[49]
  TGI: > 100 µM
[50]
  TGI: > 100 µM
[51]
  TGI: > 100 µM
[52]
  TGI: > 100 µM
[53]
  TGI: > 100 µM
[54]
  TGI: > 100 µM

## COC1CC2C3/C(=N/Nc4ccc([N+](=O)[O-])cc4[N+](=O)[O-])CCC2(C)C3C1 (configuration not stated)
[1]
  TGI: > 10 µM
[2]
  TGI: > 100 µM
[4]
  TGI: > 100 µM
[5]
  TGI: > 10 µM
[6]
  TGI: > 100 µM
[7]
  TGI: > 10 µM
[55]
  TGI: > 100 µM
[8]
  TGI: > 10 µM
[9]
  TGI: > 100 µM
[10]
  TGI: > 100 µM
[11]
  TGI: > 10 µM
[12]
  TGI: > 10 µM
[13]
  TGI: > 10 µM
[14]
  TGI: > 10 µM
[15]
  TGI: > 10 µM
[16]
  TGI: > 10 µM
[17]
  TGI: > 10 µM
[19]
  TGI: > 100 µM
[20]
  TGI: > 10 µM
[21]
  TGI: > 10 µM
[22]
  TGI: > 10 µM
[23]
  TGI: > 100 µM
[24]
  TGI: > 10 µM
[25]
  TGI: > 10 µM
[26]
  TGI: > 10 µM
[27]
  TGI: > 10 µM
[28]
  TGI: > 10 µM
[29]
  TGI: > 100 µM
[30]
  TGI: > 100 µM
[31]
  TGI: > 100 µM
[32]
  TGI: > 10 µM
[33]
  TGI: > 100 µM
[34]
  TGI: > 10 µM
[35]
  TGI: > 10 µM
[36]
  TGI: > 10 µM
[37]
  TGI: > 10 µM
[38]
  TGI: > 10 µM
[39]
  TGI: > 10 µM
[40]
  TGI: > 100 µM
[41]
  TGI: > 100 µM
[42]
  TGI: > 10 µM
[43]
  TGI: > 100 µM
[44]
  TGI: > 100 µM
[57]
  TGI: > 10 µM
[45]
  TGI: > 10 µM
[46]
  TGI: > 10 µM
[47]
  TGI: > 10 µM
[48]
  TGI: > 10 µM
[49]
  TGI: > 10 µM
[50]
  TGI: > 10 µM
[51]
  TGI: > 10 µM
[52]
  TGI: > 10 µM
[53]
  TGI: > 10 µM
[54]
  TGI: > 100 µM
